Measured values taken from patent US20260240841A1, “COMBINATION OF HPK1 INHIBITOR AND AXL INHIBITOR IN CANCER THERAPY” (BOARD OF REGENTS, THE UNIVERSITY OF TEXAS SYSTEM, priority 2023, published 2026).

Legend:
[1] = test system: pancreatic cancer; conditions: Ludwig et al.; cited from earlier work
[2] = test system: mouse PDAC models; conditions: cited from earlier work
[3] = test system: orthotopic KPC-Luc pancreatic tumors; test: Orthotopic KPC-Luc pancreatic cancer model treated with MRTX1133; type: in vivo, mouse; conditions: for tumor weight: 25 mg/kg twice daily for ten days, weighed seven days after completion, FIG. 10
Protocol: (§1) For sub-cutaneous xenograft studies, the C57BL/6 female or male mice aged 5-7 weeks (Jackson Labs) were used. 1×10^6 KPC-Luc cells or 2×10^5 B16F10 melanoma cells were injected into the dorsal region of the wild type (WT) or HPK1-mice. Animals were imaged using the IVIS Spectrum, PerkinElmer and Bruker ICON MRI at 3 and 10 days after successful implantation of KPC-Luc cells. Only mice with similar tumor volume (~150 mm^3) were used for treatment studies. These experiments were randomized. […] Mice were euthanized for tumor collection once tumor volume was approximately ~1000 mm^3. For orthotopic studies, 0.5×10^6 KPC-Luc cells were implanted orthotopically into WT C57BL/6 mice and/or HPK1^−/− mice pancreas. Bioluminescence imaging with the IVIS Spectrum (Perkin Elmer) was performed after intraperitoneal injection of 1.5 mg of D-luciferin (PerkinElmer). After image acquisition, the Living Image 4.7 software (PerkinElmer) was used for analysis of images. Therapy was initiated at day 10 post tumor cell injection. All mice were sacrificed on Day 35 for survival study or otherwise labeled in the Figures.
(§2) To examine the effects of pharmacological inhibition of Axl, Kras, and HPK1 with or without Anti-41BB/CD137 on tumor growth, Axl inhibitor (Bemcentinib MedChem Express) was dosed at 10 mg/kg/day for intraperitoneal injection (IP). HPK1-IN-7 (HPK1 inhibitor #1 MedChem Express) was dosed at 20 mg/kg/day orally, GNE1858 (HPK1 inhibitor #2 MedChem Express) was dosed at 10 mg/kg/day orally. KRAS^G12D inhibitor (MRTX1133, MedChem Express) was dosed at 25 mg/Kg twice daily for intraperitoneal injection. Anti-41BB (clone LOB12.3, BioXCell, BE0169) antibody and its corresponding isotype IgG controls were intraperitoneally administered at 200 μg per injection for three times per week. The duration of treatment was 10 days. Tumor size was measured every other day using the methods as previously described.
To further evaluate the association, tumor size was determined in mice treated with MRTX1133. […]

[4] = test system: KPC-Luc cells; test: KPC-Luc tumor growth in WT C57BL/6 mice under Axl inhibitor, HPK1 inhibitor, CD137 antibody and combinations; type: in vivo, mouse; conditions: treated 10 days
Protocol: as §1
To examine the effects of pharmacological inhibition of Axl, Kras, and HPK1 with or without Anti-41BB/CD137 on tumor growth, Axl inhibitor (Bemcentinib MedChem Express) was dosed at 10 mg/kg/day for intraperitoneal injection (IP). HPK1-IN-7 (HPK1 inhibitor #1 MedChem Express) was dosed at 20 mg/kg/day orally, GNE1858 (HPK1 inhibitor #2 MedChem Express) was dosed at 10 mg/kg/day orally. […] Tumor size was measured every other day using the methods as previously described.
Tumors were grown in wild-type mice, and treatment was performed as described above. Following treatment, tumors were excised from the mice and both tumor volume and tumor weight were measured.
To further study the synergistic effects of the combination therapy, tumors were grown in wild-type mice and treatment was performed as described above. Following treatment, tumors were excised from the mice and tumor weight was evaluated. […]

[5] = test system: orthotopic xenograft tumors of KPC-Luc cells; test: Multicolor flow cytometry of intra-tumoral hematopoietic cells from KPC-Luc xenograft tumors; type: in vivo, mouse
Protocol: For flow cytometry studies, orthotopic xenograft tumors of KPC-Luc cells from the HPK1−/− or wild type control were digested in digestion buffer (1 mg/mL collagenase IV and 10 U/mL DNase I in Dulbecco's Modified Eagle Medium (DMEM)) at 37° C. for 30 minutes. After thorough mixing, the samples were pushed through a 70-μm cell strainer and washed with 40 ml DMEM without fetal bovine serum (FBS), The digested cells were re-suspended in 37 % Percoll and overlaid on top of the same volume of 70% Percoll. After centrifugation at 800 g for 20 minutes with break off, the lymphocytes were isolated from the interface and rinsed with PBS. The cells were first stained by Zombie UV, followed by incubation in a cocktail comprising the following antibodies in cell staining buffer: anti-CD45, anti-CD38, anti-B220, anti-CD11b, anti-F4/80, anti-Ly6C, anti-Ly6G, anti-CD4, anti-IA/IE, and anti-CD8g. After washing, the stained cells were submitted for multiple-color flow cytometry. The results were processed using FlowJo software.
Following tumor xenograft imaging, the tumors were excised from the mice and subsequently prepared for flow cytometry as described above.

[6] = test system: orthotopic xenograft tumors of KPC-Luc cells; test: IVIS bioluminescence imaging of orthotopic KPC-Luc xenograft tumors treated with Axl inhibitor; type: in vivo, mouse; conditions: imaged 17 days post implantation with KPC-Luc cells
Protocol: as §1, with “All mice were sacrificed on Day 35 for survival study or otherwise labeled in the Figures.” left out
To examine the effects of pharmacological inhibition of Axl, Kras, and HPK1 with or without Anti-41BB/CD137 on tumor growth, Axl inhibitor (Bemcentinib MedChem Express) was dosed at 10 mg/kg/day for intraperitoneal injection (IP). […] Tumor size was measured every other day using the methods as previously described. […]

[7] = test system: B16F10 melanoma cells; test: Subcutaneous B16F10 melanoma xenograft model; type: in vivo, mouse; conditions: for tumor weight: FIG. 12B
Protocol: as §1, §2
To evaluate the therapeutic effect of an Axl inhibitor, bemcentinib, on melanoma, subcutaneous tumors of subcutaneous melanoma xenograft model of B16F10 cells in HPK1 knockout mice and wild type mice were treated with 10 mg/kg/day bemcentinib by intraperitoneal injection (IP) twice daily for 10 days. The tumor volumes (FIG. 12A) and tumor weight (FIG. 12B) were measured at 12 days after the completion of treatment.
Subcutaneous melanoma xenograft tumors of B16F10 cells were grown in wild-type mice, and treatment was performed as described above. Following treatment, tumors were excised from the mice at day 12 after completion of therapy and both tumor volume and tumor weight were measured.

## Nc1nc(Nc2ccc3c(c2)CC[C@@H](N2CCCC2)CC3)nn1-c1cc2c(nn1)-c1ccccc1CCC2 [BGB324]
[1]
  aggressiveness of pancreatic cancer: inhibits the aggressiveness of pancreatic cancer
  sensitivity of pancreatic cancer cells to gemcitabine: sensitizes pancreatic cancer cells to gemcitabine
  tumor immune microenvironment: induces an immune stimulatory microenvironment

## C#Cc1c(F)ccc2cc(O)cc(-c3ncc4c(N5CC6CCC(C5)N6)nc(OC[C@@]56CCCN5C[C@H](F)C6)nc4c3F)c12 [MRTX1133]
[2]
  tumor growth: shrink tumors or halt the growth
[3]; HPK1 knockout mice
  tumor weight: significant decrease in tumor weight
[3]; wild type mice
  tumor weight: slight decrease in tumor weight
[3]; wild-type mice versus HPK1 knockout mice, 25 mg/kg IP twice daily, imaged 7 days after treatment, FIG. 9
  response of tumor size shown by luminescence: less responsive than the HPK1 knockout mice

## Nc1nc(Nc2ccc3c(c2)CC[C@@H](N2CCCC2)CC3)nn1-c1cc2c(nn1)-c1ccccc1CCC2 [bemcentinib]
[4]; measured 15 days after completion of treatment, FIG. 6A
  tumor volume: did not significantly decrease
[4]; weighed 12 days after completion, control about 0.6 grams, FIG. 7
  tumor weight compared to control (in words): only minimally reduced
[4]; weighed 15 days after completion of treatment, FIG. 6B
  tumor weight compared to control: reduced the tumor weight to a small degree
[5]; HPK1 knockout mice, FIG. 4B
  CD3+ T cells and CD8+ T cells in the tumor microenvironment: increased
[5]; HPK1 knockout mice, tumor microenvironment, FIG. 4B
  infiltration of macrophages and myeloid suppressor cells: decreased the infiltration
[5]; wild-type mice, intra-tumoral, FIG. 4A
  number or function of B cells, CD3+ cells, CD4+ T cells, CD8+ T cells, CD11b+ cells, M-MDSC's, PMN-MDSC's, macrophages, neutrophils: did not increase or decrease
[6]; HPK1 knockout mice, FIG. 3B
  tumor growth (luminescence): inhibited the growth of the tumor
[6]; wild type mice, FIG. 3A
  tumor volume (luminescence): little to no decrease in the tumor volume
[7]; HPK1 knockout mice, 10 mg/kg/day IP for 10 days, 12 days after completion, FIG. 12A
  tumor volume: significant decrease
[7]; HPK1 knockout mice, 10 mg/kg/day IP for 10 days, 12 days after completion
  tumor weight: significant decrease
[7]; wild type mice, 10 mg/kg/day IP for 10 days, 12 days after completion, FIG. 12A
  tumor volume: slight decrease
[7]; wild type mice, 10 mg/kg/day IP for 10 days, 12 days after completion
  tumor weight: slight decrease
[7]; wild-type mice, inhibitor comparison, treated 10 days, day 12 after completion, FIG. 13A
  tumor volume: did not significantly decrease
[7]; wild-type mice, inhibitor comparison, treated 10 days, day 12 after completion, FIG. 13B
  tumor weight compared to control: reduced the tumor weight to a small degree
